According to the supplement of paper PMC10307832:

What was measured:
Assay in all cases: relative viability (nuclei count vs DMSO), 5 days (fraction); higher = more cells survive
A-427 = tested on: A-427
How it was run: (§1)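 Five library-drug doses in √10 steps were combined with a fixed anchor-drug dose, or a single drug was given alone, by pin tool to lung cancer cell lines in 1536-well plates the day after seeding. Nuclei were stained and counted after 5 days. Relative viability is the nuclei count in treated wells over that in vehicle wells, taken as the median of duplicate plates.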

COR-L 105 = tested on: COR-L 105
How it was run: as §1

EPLC-272H = tested on: EPLC-272H
How it was run: as §1

HCC-366 = tested on: HCC-366
How it was run: as §1

HCC-78 = tested on: HCC-78
How it was run: as §1

HOP-62 = tested on: HOP-62
How it was run: as §1

LC-2-ad = tested on: LC-2-ad
How it was run: as §1

LCLC-97TM1 = tested on: LCLC-97TM1
How it was run: as §1

LU99A = tested on: LU99A
How it was run: as §1

LXF-289 = tested on: LXF-289
How it was run: as §1

NCI-H1755 = tested on: NCI-H1755
How it was run: as §1

NCI-H1792 = tested on: NCI-H1792
How it was run: as §1

NCI-H1915 = tested on: NCI-H1915
How it was run: as §1

NCI-H1975 = tested on: NCI-H1975
How it was run: as §1

NCI-H2085 = tested on: NCI-H2085
How it was run: as §1

NCI-H460 = tested on: NCI-H460
How it was run: as §1

SK-LU-1 = tested on: SK-LU-1
How it was run: as §1

UMC-11 = tested on: UMC-11
How it was run: as §1

**Q.** Which results are given for `C=C1C(=O)O[C@@H](CCCCCCCC)[C@@H]1C(=O)O` [C-75] + CC(C)C[C@H](NC(=O)[C@H](Cc1ccccc1)NC(=O)c1cnccn1)B(O)O [Bortezomib] (partner 0.002 µM)?
**A.** relative viability (A-427; first compound 0.08 µM): 1.01; relative viability (A-427; first compound 0.253 µM): 0.988; relative viability (A-427; first compound 0.8 µM): 1.02; relative viability (A-427; first compound 2.53 µM): 0.78; relative viability (A-427; first compound 8 µM): 1.12; relative viability (COR-L 105; first compound 0.08 µM): 0.838; relative viability (COR-L 105; first compound 0.253 µM): 0.627; relative viability (COR-L 105; first compound 0.8 µM): 0.779; relative viability (COR-L 105; first compound 2.53 µM): 0.809; relative viability (COR-L 105; first compound 8 µM): 0.728; relative viability (EPLC-272H; first compound 0.08 µM): 1.03; relative viability (EPLC-272H; first compound 0.253 µM): 0.845; relative viability (EPLC-272H; first compound 0.8 µM): 0.792; relative viability (EPLC-272H; first compound 2.53 µM): 0.833; relative viability (EPLC-272H; first compound 8 µM): 0.913; relative viability (HCC-366; first compound 0.08 µM): 1.07; relative viability (HCC-366; first compound 0.253 µM): 1.16; relative viability (HCC-366; first compound 0.8 µM): 0.973; relative viability (HCC-366; first compound 8 µM): 0.941; relative viability (HCC-78; first compound 0.08 µM): 0.507; relative viability (HCC-78; first compound 0.253 µM): 0.412; relative viability (HCC-78; first compound 0.8 µM): 0.386; relative viability (HCC-78; first compound 2.53 µM): 0.423; relative viability (HCC-78; first compound 8 µM): 0.472; relative viability (HOP-62; first compound 0.08 µM): 0.651; relative viability (HOP-62; first compound 0.253 µM): 0.676; relative viability (HOP-62; first compound 0.8 µM): 0.89; relative viability (HOP-62; first compound 2.53 µM): 0.778; relative viability (HOP-62; first compound 8 µM): 0.916; relative viability (LC-2-ad; first compound 0.08 µM): 1.04; relative viability (LC-2-ad; first compound 0.253 µM): 0.97; relative viability (LC-2-ad; first compound 0.8 µM): 0.985; relative viability (LC-2-ad; first compound 8 µM): 0.961; relative viability (LCLC-97TM1; first compound 0.08 µM): 0.636; relative viability (LCLC-97TM1; first compound 0.253 µM): 0.595; relative viability (LCLC-97TM1; first compound 0.8 µM): 0.222; relative viability (LCLC-97TM1; first compound 2.53 µM): 0.477; relative viability (LCLC-97TM1; first compound 8 µM): 0.218; relative viability (LU99A; first compound 0.08 µM): 1.1; relative viability (LU99A; first compound 0.253 µM): 1.03; relative viability (LU99A; first compound 0.8 µM): 1.08; relative viability (LU99A; first compound 2.53 µM): 0.933; relative viability (LU99A; first compound 8 µM): 0.885; relative viability (LXF-289; first compound 0.08 µM): 0.945; relative viability (LXF-289; first compound 0.253 µM): 0.984; relative viability (LXF-289; first compound 0.8 µM): 0.889; relative viability (LXF-289; first compound 2.53 µM): 0.951; relative viability (LXF-289; first compound 8 µM): 0.989; relative viability (NCI-H1755; first compound 0.08 µM): 0.985; relative viability (NCI-H1755; first compound 0.253 µM): 0.96; relative viability (NCI-H1755; first compound 0.8 µM): 0.925; relative viability (NCI-H1755; first compound 2.53 µM): 0.805; relative viability (NCI-H1755; first compound 8 µM): 0.957; relative viability (NCI-H1792; first compound 0.08 µM): 0.979; relative viability (NCI-H1792; first compound 0.253 µM): 0.881; relative viability (NCI-H1792; first compound 0.8 µM): 0.845; relative viability (NCI-H1792; first compound 2.53 µM): 0.295; relative viability (NCI-H1792; first compound 8 µM): 0.886; relative viability (NCI-H1915; first compound 0.08 µM): 0.89; relative viability (NCI-H1915; first compound 0.253 µM): 0.977; relative viability (NCI-H1915; first compound 0.8 µM): 0.935; relative viability (NCI-H1915; first compound 2.53 µM): 0.81; relative viability (NCI-H1915; first compound 8 µM): 0.922; relative viability (NCI-H1975; first compound 0.08 µM): 0.332; relative viability (NCI-H1975; first compound 0.253 µM): 0.395; relative viability (NCI-H1975; first compound 0.8 µM): 0.4; relative viability (NCI-H1975; first compound 2.53 µM): 0.283; relative viability (NCI-H1975; first compound 8 µM): 0.361; relative viability (NCI-H2085; first compound 0.08 µM): 1.13; relative viability (NCI-H2085; first compound 0.253 µM): 0.882; relative viability (NCI-H2085; first compound 0.8 µM): 0.999; relative viability (NCI-H2085; first compound 2.53 µM): 0.76; relative viability (NCI-H2085; first compound 8 µM): 0.897; relative viability (NCI-H460; first compound 0.08 µM): 1.05; relative viability (NCI-H460; first compound 0.253 µM): 1.22; relative viability (NCI-H460; first compound 0.8 µM): 0.982; relative viability (NCI-H460; first compound 8 µM): 0.945; relative viability (SK-LU-1; first compound 0.08 µM): 1.24; relative viability (SK-LU-1; first compound 0.253 µM): 1.11; relative viability (SK-LU-1; first compound 0.8 µM): 0.836; relative viability (SK-LU-1; first compound 2.53 µM): 0.847; relative viability (SK-LU-1; first compound 8 µM): 0.658; relative viability (UMC-11; first compound 0.08 µM): 0.691; relative viability (UMC-11; first compound 0.253 µM): 0.761; relative viability (UMC-11; first compound 0.8 µM): 0.804; relative viability (UMC-11; first compound 2.53 µM): 0.575; relative viability (UMC-11; first compound 8 µM): 0.604
